Assay [1] concerns the target T1, Progesterone receptor (Homo sapiens, UniProt P06401).
T1 sequence (P06401 whole entry): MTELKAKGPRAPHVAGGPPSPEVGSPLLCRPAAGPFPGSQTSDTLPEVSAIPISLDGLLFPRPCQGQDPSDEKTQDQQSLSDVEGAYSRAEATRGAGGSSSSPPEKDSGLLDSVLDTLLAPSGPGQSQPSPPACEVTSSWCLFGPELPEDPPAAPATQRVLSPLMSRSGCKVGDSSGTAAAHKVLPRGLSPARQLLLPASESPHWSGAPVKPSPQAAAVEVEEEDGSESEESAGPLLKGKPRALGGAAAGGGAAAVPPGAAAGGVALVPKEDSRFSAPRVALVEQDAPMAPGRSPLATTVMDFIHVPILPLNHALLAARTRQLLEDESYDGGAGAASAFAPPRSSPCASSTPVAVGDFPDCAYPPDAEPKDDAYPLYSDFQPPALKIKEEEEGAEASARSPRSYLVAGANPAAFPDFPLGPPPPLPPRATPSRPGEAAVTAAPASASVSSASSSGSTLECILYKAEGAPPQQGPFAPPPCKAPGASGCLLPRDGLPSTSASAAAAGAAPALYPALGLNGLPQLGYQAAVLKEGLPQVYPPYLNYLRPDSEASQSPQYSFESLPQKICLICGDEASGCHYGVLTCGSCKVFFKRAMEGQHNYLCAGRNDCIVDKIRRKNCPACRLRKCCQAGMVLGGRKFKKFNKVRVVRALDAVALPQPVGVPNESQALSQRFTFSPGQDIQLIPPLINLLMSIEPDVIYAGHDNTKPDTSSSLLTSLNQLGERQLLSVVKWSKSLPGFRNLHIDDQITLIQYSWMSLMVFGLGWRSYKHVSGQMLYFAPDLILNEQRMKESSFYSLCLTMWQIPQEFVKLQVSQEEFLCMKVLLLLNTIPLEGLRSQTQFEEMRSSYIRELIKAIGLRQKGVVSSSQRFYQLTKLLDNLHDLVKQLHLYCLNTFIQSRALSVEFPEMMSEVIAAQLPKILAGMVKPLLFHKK
The assay can be described thus: Effective concentration against human Progesterone receptor B isoform expressed in CV-1 cells. Type of assay: cell-based.

Assay [2] has as its target T1, Progesterone receptor.
Assay [3] deals with T2, Androgen receptor (Homo sapiens, UniProt P10275).
T2 sequence (P10275 whole entry): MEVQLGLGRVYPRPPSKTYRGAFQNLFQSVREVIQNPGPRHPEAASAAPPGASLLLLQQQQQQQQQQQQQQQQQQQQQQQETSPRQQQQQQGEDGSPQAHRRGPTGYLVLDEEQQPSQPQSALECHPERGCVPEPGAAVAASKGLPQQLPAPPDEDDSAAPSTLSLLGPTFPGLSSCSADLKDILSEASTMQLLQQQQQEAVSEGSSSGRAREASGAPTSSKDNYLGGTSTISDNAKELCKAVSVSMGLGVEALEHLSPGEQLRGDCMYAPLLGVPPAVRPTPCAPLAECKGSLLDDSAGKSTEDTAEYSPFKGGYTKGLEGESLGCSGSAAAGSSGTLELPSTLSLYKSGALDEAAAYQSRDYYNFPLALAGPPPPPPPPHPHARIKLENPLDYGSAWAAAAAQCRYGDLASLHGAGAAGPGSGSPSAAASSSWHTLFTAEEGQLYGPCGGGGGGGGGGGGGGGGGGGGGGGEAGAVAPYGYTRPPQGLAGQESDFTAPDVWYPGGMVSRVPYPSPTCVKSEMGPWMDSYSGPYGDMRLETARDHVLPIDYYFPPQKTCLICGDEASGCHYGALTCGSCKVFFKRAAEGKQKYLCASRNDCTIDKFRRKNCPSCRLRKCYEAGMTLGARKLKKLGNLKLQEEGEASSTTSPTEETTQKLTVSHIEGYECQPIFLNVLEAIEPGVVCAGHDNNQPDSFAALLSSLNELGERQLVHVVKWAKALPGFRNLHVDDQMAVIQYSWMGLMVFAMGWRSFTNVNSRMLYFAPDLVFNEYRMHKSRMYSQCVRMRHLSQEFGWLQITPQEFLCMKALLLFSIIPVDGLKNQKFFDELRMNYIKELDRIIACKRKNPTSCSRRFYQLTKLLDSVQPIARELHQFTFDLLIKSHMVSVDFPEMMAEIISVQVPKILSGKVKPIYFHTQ
Description: Binding affinity determined against human Androgen receptor

Assay [4] has as its target T3, Glucocorticoid receptor (Homo sapiens, UniProt P04150).
T3 sequence (P04150 whole entry): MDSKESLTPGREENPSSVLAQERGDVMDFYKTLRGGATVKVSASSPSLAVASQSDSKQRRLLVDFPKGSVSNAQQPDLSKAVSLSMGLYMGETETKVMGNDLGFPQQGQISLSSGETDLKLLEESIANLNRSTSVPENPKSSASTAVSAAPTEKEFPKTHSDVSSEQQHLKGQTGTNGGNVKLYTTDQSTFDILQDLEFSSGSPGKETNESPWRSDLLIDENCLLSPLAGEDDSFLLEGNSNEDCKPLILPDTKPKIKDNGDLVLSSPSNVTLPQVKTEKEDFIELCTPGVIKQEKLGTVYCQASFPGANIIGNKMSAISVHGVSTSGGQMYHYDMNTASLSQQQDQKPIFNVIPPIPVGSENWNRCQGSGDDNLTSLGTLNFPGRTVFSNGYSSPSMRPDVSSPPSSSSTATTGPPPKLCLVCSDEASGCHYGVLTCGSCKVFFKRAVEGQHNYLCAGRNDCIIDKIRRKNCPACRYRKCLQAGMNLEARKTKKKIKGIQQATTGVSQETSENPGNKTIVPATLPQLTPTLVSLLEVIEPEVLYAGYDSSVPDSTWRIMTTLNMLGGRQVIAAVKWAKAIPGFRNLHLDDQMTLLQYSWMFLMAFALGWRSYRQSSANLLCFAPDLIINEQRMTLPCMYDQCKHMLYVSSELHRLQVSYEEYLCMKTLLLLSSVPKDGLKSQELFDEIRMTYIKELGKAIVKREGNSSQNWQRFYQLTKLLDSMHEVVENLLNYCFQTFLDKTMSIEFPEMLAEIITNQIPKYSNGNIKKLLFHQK
Description: Binding affinity was determined for human glucocorticoid receptor(hGR).

Assay [5] has as its target T1, Progesterone receptor. This is another data set of the same source.
Assay [6] concerns the target T4, Progesterone receptor (Homo sapiens) (UniProt P06401).
T4 sequence (whole entry): T1 sequence (P06401 whole entry)
To be noted: CV-1.

Assay [7] deals with T3, Glucocorticoid receptor. Put plainly: Inhibitory activity against human glucocorticoid receptor (hGR).
Assay [8] concerns the target T2, Androgen receptor. This is another data set of the same source.
Description: Inhibitory activity against human Androgen receptor
Assay [9] concerns the target T1, Progesterone receptor. This is another data set of the same source.
Assay [10] addresses T5, Estrogen receptor (Homo sapiens, UniProt Q92731+P03372).
Description: Inhibitory activity against human estrogen receptor
The target in assay [11] is T2, Androgen receptor. This is another data set of the same source.
Description: Binding affinity for human Androgen receptor
Assay [12] addresses T3, Glucocorticoid receptor. The source holds these as a separate data set.
Assay [13] deals with T6, Mineralocorticoid receptor (Homo sapiens, UniProt P08235).
T6 sequence (P08235 whole entry): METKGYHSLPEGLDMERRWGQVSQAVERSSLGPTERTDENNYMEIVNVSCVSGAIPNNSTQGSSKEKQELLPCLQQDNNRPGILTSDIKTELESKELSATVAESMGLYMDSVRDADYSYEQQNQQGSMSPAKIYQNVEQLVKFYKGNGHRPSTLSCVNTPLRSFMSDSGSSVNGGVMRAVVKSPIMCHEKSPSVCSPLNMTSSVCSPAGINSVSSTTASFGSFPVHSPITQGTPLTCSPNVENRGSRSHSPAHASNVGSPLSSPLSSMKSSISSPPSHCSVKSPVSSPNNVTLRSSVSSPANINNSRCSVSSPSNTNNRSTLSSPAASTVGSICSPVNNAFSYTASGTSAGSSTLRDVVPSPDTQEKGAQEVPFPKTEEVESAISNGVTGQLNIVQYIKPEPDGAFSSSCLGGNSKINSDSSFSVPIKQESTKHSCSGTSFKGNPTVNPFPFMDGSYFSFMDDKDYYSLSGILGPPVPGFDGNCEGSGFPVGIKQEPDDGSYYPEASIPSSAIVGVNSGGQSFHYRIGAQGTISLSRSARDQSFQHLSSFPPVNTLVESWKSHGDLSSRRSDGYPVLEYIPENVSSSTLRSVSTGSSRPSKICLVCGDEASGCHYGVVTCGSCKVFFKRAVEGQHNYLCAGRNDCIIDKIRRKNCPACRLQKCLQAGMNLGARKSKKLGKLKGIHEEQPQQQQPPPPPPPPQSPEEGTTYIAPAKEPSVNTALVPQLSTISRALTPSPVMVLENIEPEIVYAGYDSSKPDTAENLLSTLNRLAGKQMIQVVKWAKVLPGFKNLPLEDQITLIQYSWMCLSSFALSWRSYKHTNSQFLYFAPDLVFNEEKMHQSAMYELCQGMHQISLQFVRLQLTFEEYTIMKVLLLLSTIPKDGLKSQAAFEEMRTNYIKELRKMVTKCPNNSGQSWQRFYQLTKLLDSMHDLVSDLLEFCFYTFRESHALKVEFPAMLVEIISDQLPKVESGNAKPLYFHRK

Assay [14] addresses T5, Estrogen receptor. This is another data set of the same source.
Description: Binding affinity for human estrogen receptor
Assay [15] has as its target T4, Progesterone receptor (Homo sapiens). To be noted: CV-1. The source holds these as a separate data set.
Assay [16] concerns the target T3, Glucocorticoid receptor. Put plainly: Binding affinity against human glucocorticoid receptor(hGR).
In assay [17] the target is T1, Progesterone receptor. This is another data set of the same source.
Assay [18] addresses T6, Mineralocorticoid receptor. The assay can be described thus: Inhibitory activity against human mineralocorticoid receptor (hMR).

Bounds are passed on as bounds.

Turning to `C=C1C=C(C)CC(C)(C)C1C/C=C/c1cc(OC)c(Br)cc1O` (configuration not stated), in [1], a half-maximal effect (EC50) was put at 3300 nM. Besides, in [2], inhibition was half-maximal at 1600 nM (IC50). The Ki in assay [3] came out at 2320 nM; in assay [4], 4420 nM; in [5], 84 nM. Besides, the Max inhibition in assay [6] worked out at 61%.

In the case of `C=C1CC[C@@H](Br)C(C)(C)[C@@H]1Cc1cc(OC)c(Br)cc1O`, the IC50 is over 10000 nM in assay [7], 3500 nM in [2], 238 nM in assay [8] and over 10000 nM in assay [10]. The inhibitory constant (Ki) in assay [4] was found to be 2470 nM; in assay [5], 343 nM. Also, in [9], a half-maximal effect (EC50) was put at 35 nM. In [6], this compound returned a Max inhibition of under 20%.

As for `CN(C)c1ccc([C@H]2CC3(C)[C@@H](CC[C@]3(O)CCCO)[C@@H]3CCC4=CC(=O)CCC4=C32)cc1` (single isomer, unassigned) [ONAPRISTONE], the IC50 in assay [8] is 269 nM; in assay [12], 27 nM; in assay [13], over 1000 nM; in assay [10], over 1000 nM. In addition, the values for the Ki in assay [11], in assay [4] and in assay [14] were over 100 nM, 41.8 nM and under 20 nM, respectively. The Max inhibition in assay [15] came out at 99%.

Regarding `C=C1CC[C@@H](Br)C(C)(C)[C@H]1Cc1cc(OC)c(Br)cc1O`, the Ki in [16] came to 3210 nM; in assay [5], 490 nM. The IC50 in [7] is over 10000 nM; in [2] it was 354 nM; in [8], 449 nM; in assay [17], 549 nM; in [10] it was over 10000 nM. Moreover, the Max inhibition in [6] was 83%.

Regarding `C=C1CCCC(C)(C)[C@H]1Cc1cc(OC)c(Br)cc1O`, the IC50 in assay [7] was over 10000 nM; in assay [18], 1500 nM; in assay [2] it was 210 nM; in assay [17], 741 nM; in [10], over 10000 nM. Besides, the values for the Ki in [4], in [5] and in assay [14] were 1770 nM, 218 nM and over 10000 nM, respectively. In addition, the Max inhibition in assay [6] is 94%.

In the case of `C=C1C[C@H](C)CC(C)(C)[C@@H]1Cc1cc(OC)c(Br)cc1O`, in [2], the IC50 is over 10000 nM. Besides, the Ki in [3] came to 696 nM; in assay [4] it was 1040 nM; in assay [5] it was 22 nM. The EC50 in assay [9] was determined as 458 nM. Moreover, the Max inhibition in [6] is under 20%.

For the compound `C=C1C[C@H](CO)CC(C)(C)[C@@H]1Cc1cc(OC)c(Br)cc1O`, the IC50 in assay [2] is 2000 nM; in [17], 3300 nM. The values for the Ki in assay [3], in assay [4] and in assay [5] were 6810 nM, 6390 nM and 3250 nM, respectively. Also, the Max inhibition in [6] and in [15] was 87% in each case.
